Source: publication PMC10114980, “Triple targeting of mutant EGFR^L858R/T790M, COX-2, and 15-LOX: design and synthesis of novel quinazolinone tethered phenyl urea derivatives for anti-inflammatory and anticancer evaluation” (Journal of Enzyme Inhibition and Medicinal Chemistry, 2023)

Assays:
[1] = Cell viability assay against normal cell line (MTS); format: cell-based; details: mouse, RAW 264.7 cells, concentrations up to 50 μM, read-out: cell viability percentage of the control values
Method: To evaluate the possible non-selective cytotoxic effect of the investigated compounds (6a, 6c, 6d, 6e, 6j, 6l, 6m, 6n, 6o, and 6p) on normal cells, their effect on RAW 264.7 cells viability was assessed at different concentrations (12.5, 25, 50, and 100 µM). Cell viability was measured using 3-(4,5-dimethylthiazol-2-yl)-5-(3-carboxymethoxyphenyl)-2-(4 sulfophenyl)-2H-tetrazolium (MTS) assay (Promega, Madison, Wisconsin) according to the manufacturer’s instructions.

[2] = test system: NCI-H322M; test: NCI single dose screen, NCI-H322M; format: cell-based; details: Homo sapiens, non-small cell lung cancer, single dose 10^−5 M, read-out: growth inhibition percentage
Method: (§1) Screening of the anticancer activity of the newly synthesised compounds (6a, 6c, 6d, 6e, 6j, 6l, 6m, 6n, 6o, and 6p) was performed by the US National Cancer Institute (NCI) using 60 different human tumour cell lines in accordance with standard procedures formerly reported.
(§2) In vitro anticancer screening was carried out for the selected compounds at a single dose (10^−5 M) against 60 different human tumour cell lines of nine different cancer cell types: leukaemia, lung, colon, CNS, melanoma, ovarian, renal, prostate, and breast cancers.

[3] = test system: HCT-15; test: NCI single dose screen, HCT-15; format: cell-based; details: Homo sapiens; HCT-15, colon cancer; single dose 10^−5 M; read-out: growth inhibition percentage
Method: as §1, §2

[4] = test system: U251; test: NCI single dose screen, U251; format: cell-based; details: Homo sapiens, U-251; U251, CNS cancer; single dose 10^−5 M; read-out: growth inhibition percentage
Method: as §1, §2

[5] = biological target: T1, soybean 15-LOX (Glycine max, UniProt P08170); test: 15-LOX inhibitor screening assay (Cayman); format: biochemical; details: mean ± SEM, n = 3 replicates
T1 sequence (P08170 1-839): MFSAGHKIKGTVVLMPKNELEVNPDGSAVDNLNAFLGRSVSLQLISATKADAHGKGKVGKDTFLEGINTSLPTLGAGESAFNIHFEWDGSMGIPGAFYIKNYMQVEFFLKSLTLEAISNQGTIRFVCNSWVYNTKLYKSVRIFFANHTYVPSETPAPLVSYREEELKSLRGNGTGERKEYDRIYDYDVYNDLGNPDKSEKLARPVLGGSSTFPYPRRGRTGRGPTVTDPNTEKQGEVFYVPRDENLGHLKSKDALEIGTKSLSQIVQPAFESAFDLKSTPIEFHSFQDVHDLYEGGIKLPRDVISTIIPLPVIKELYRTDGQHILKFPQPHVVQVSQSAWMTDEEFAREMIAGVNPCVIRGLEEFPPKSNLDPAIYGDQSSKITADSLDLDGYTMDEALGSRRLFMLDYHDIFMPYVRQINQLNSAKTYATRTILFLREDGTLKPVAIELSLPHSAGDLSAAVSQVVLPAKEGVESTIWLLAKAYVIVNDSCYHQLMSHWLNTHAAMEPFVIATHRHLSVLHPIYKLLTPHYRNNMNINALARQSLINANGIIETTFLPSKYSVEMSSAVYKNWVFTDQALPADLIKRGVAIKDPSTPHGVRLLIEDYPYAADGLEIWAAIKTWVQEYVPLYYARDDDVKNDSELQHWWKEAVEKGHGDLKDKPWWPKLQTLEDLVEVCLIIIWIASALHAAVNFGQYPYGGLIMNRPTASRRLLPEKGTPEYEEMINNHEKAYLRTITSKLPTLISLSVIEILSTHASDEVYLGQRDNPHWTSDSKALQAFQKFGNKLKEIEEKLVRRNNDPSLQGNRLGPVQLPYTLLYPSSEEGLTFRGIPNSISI

[6] = test system: OVCAR-8; test: NCI single dose screen, OVCAR-8; format: cell-based; details: Homo sapiens; OVCAR-8, ovarian cancer; single dose 10^−5 M; read-out: growth inhibition percentage
Method: as §1, §2

[7] = test system: SN12C; test: NCI single dose screen, SN12C; format: cell-based; details: Homo sapiens, renal cancer, single dose 10^−5 M, read-out: growth inhibition percentage
Method: as §1, §2

[8] = test system: 786-0; test: NCI single dose screen, 786-0; format: cell-based; details: Homo sapiens; 786-0, renal cancer; single dose 10^−5 M; read-out: growth inhibition percentage
Method: as §1, §2

[9] = biological target: T2, wild-type EGFR (Homo sapiens, UniProt P00533); test: In vitro EGFR inhibition assay, wild type; format: biochemical; details: read-out: EGFR^WT IC50
T2 construct: purchased AssayQuant Technologies, Inc. (Marlboro, MA, USA)

[10] = test system: NCI-H522; test: NCI single dose screen, NCI-H522; format: cell-based; details: Homo sapiens; NCI-H522, non-small cell lung cancer; single dose 10^−5 M; read-out: growth inhibition percentage
Method: as §1, §2

[11] = test system: ACHN; test: NCI single dose screen, ACHN; format: cell-based; details: Homo sapiens, renal cancer, single dose 10^−5 M, read-out: growth inhibition percentage
Method: as §1, §2

[12] = test system: NCI-H226; test: NCI single dose screen, NCI-H226; format: cell-based; details: Homo sapiens; NCI-H226, non-small cell lung cancer; single dose 10^−5 M; read-out: growth inhibition percentage
Method: as §1, §2

[13] = test system: KM12; test: NCI single dose screen, KM12; format: cell-based; details: Homo sapiens; KM12, colon cancer; single dose 10^−5 M; read-out: growth inhibition percentage
Method: as §1, §2

[14] = test system: SW-620; test: NCI single dose screen, SW-620; format: cell-based; details: Homo sapiens; SW-620, colon cancer; single dose 10^−5 M; read-out: growth inhibition percentage
Method: as §1, §2

[15] = test system: HL-60(TB); test: NCI single dose screen, HL-60(TB); format: cell-based; details: Homo sapiens, leukaemia, single dose 10^−5 M, read-out: growth inhibition percentage
Method: as §1, §2

[16] = test system: MDA-MB-435; test: NCI single dose screen, MDA-MB-435; format: cell-based; details: Homo sapiens; MDA-MB-435, melanoma; single dose 10^−5 M; read-out: growth inhibition percentage
Method: as §1, §2

[17] = test system: A549/ATCC; test: NCI single dose screen, A549/ATCC; format: cell-based; details: Homo sapiens, non-small cell lung cancer, single dose 10^−5 M, read-out: growth inhibition percentage
Method: as §1, §2

[18] = test system: CCRF-CEM; test: NCI single dose screen, CCRF-CEM; format: cell-based; details: Homo sapiens, leukaemia, single dose 10^−5 M, read-out: growth inhibition percentage
Method: as §1, §2

[19] = test system: OVCAR-3; test: NCI single dose screen, OVCAR-3; format: cell-based; details: Homo sapiens; OVCAR-3, ovarian cancer; single dose 10^−5 M; read-out: growth inhibition percentage
Method: as §1, §2

[20] = test system: NCI-H460; test: NCI single dose screen, NCI-H460; format: cell-based; details: Homo sapiens; NCI-H460, non-small cell lung cancer; single dose 10^−5 M; read-out: growth inhibition percentage
Method: as §1, §2

[21] = test system: LOX IMVI; test: NCI single dose screen, LOX IMVI; format: cell-based; details: Homo sapiens, melanoma, single dose 10^−5 M, read-out: growth inhibition percentage
Method: as §1, §2

[22] = test system: HCT-116; test: NCI single dose screen, HCT-116; format: cell-based; details: Homo sapiens; HCT-116, colon cancer; single dose 10^−5 M; read-out: growth inhibition percentage
Method: as §1, §2

T2 sequence (P00533 25-1210): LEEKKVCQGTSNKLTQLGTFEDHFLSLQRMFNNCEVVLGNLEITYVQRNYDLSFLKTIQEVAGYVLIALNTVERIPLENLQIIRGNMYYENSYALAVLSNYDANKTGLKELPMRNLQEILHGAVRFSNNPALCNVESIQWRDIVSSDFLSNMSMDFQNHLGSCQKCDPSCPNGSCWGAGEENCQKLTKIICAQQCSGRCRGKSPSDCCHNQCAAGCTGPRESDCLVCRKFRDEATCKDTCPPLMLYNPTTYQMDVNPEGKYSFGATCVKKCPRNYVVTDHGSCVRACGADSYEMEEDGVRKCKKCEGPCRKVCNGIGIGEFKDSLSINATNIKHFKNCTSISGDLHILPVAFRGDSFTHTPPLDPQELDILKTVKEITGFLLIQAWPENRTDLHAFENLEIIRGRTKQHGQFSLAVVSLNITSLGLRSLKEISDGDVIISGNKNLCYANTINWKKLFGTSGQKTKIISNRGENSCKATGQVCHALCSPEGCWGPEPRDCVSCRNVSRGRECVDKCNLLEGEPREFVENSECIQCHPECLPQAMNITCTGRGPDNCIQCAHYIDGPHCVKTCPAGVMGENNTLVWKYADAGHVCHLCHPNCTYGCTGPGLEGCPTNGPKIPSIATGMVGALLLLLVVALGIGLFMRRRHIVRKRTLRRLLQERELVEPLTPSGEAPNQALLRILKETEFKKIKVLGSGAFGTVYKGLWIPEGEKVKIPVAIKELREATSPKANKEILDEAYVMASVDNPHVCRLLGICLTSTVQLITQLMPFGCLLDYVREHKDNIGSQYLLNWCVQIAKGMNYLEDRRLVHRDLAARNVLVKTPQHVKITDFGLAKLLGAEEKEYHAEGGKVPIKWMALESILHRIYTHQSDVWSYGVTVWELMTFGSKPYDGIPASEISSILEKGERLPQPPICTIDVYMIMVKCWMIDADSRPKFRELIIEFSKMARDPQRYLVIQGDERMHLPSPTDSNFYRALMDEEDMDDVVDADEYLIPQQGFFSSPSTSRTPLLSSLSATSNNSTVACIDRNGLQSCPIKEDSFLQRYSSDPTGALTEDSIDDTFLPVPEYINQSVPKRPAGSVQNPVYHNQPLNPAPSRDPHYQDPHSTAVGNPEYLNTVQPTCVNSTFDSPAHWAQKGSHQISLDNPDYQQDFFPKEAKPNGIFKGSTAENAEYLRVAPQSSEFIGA

Row | Structure (SMILES) | viability [1] [%] | inhibition at 10 µM [2] [%] | inhibition at 10 µM [3] [%] | inhibition at 10 µM [4] [%] | IC50 [5] [µM] | inhibition at 10 µM [6] [%] | inhibition at 10 µM [7] [%] | inhibition at 10 µM [8] [%] | IC50 [9] [µM] | inhibition at 10 µM [10] [%] | inhibition at 10 µM [11] [%] | inhibition at 10 µM [12] [%] | inhibition at 10 µM [13] [%] | inhibition at 10 µM [14] [%] | inhibition at 10 µM [15] [%] | inhibition at 10 µM [16] [%] | inhibition at 10 µM [17] [%] | inhibition at 10 µM [18] [%] | inhibition at 10 µM [19] [%] | inhibition at 10 µM [20] [%] | also measured
1 | CN1c2ccccc2C(=O)N(NC(=O)Nc2ccc(F)cc2)C1c1ccccc1 (stereo not shown) [Compound 6m, 1-(4-Fluorophenyl)-3-(1-methyl-4-oxo-2-phenyl-1,4-dihydroquinazolin-3(2H)-yl)urea] | > 90 | < 10 | 14.3 | < 10 | 2.23 ± 0.36 | < 10 | < 10 | 12.9 | > 100 | < 10 | < 10 | < 10 | < 10 | < 10 | < 10 | < 10 | < 10 | < 10 | 20.5 | < 10 | inhibition at 10 µM [21]: 21.9%; inhibition at 10 µM [22]: < 10%
2 | CN1c2ccccc2C(=O)N(NC(=O)Nc2ccc(F)cc2)C1c1ccc(F)cc1 (stereo not shown) [Compound 6n, 1-(4-Fluorophenyl)-3-(2–(4-fluorophenyl)-1-methyl-4-oxo-1,4-dihydroquinazolin-3(2H)-yl)urea] | > 90 | < 10 | 17.5 | < 10 | 2 ± 0.26 | < 10 | < 10 | < 10 | > 100 | < 10 | 12.6 | 21 | 15.4 | < 10 | < 10 | 25.8 | < 10 | < 10 | 41.9 | < 10 | inhibition at 10 µM [21]: 31.6%; inhibition at 10 µM [22]: 22.9%
3 | CN1c2ccccc2C(=O)N(NC(=O)Nc2ccc(F)cc2)C1c1ccc([N+](=O)[O-])cc1 (stereo not shown) [Compound 6o, 1-(4-Fluorophenyl)-3–(1-methyl-2-(4-nitrophenyl)-4-oxo-1,4-dihydroquinazolin-3(2H)-yl)urea] | > 90 | < 10 | 10.7 | < 10 | 1.42 ± 0.23 | < 10 | < 10 | < 10 | 52.4 ± 1.25 | < 10 | < 10 | < 10 | < 10 | < 10 | < 10 | 19.9 | < 10 | < 10 | 22.7 | < 10 | inhibition at 10 µM [21]: 29.5%; inhibition at 10 µM [22]: 21.6%
4 | COc1ccc(C2N(NC(=O)Nc3ccc(F)cc3)C(=O)c3ccccc3N2C)cc1 (stereo not shown) [Compound 6p, 1-(4-Fluorophenyl)-3-(2–(4-methoxyphenyl)-1-methyl-4-oxo-1,4-dihydroquinazolin-3(2H)-yl)urea] | > 90 | < 10 | < 10 | < 10 | 3.87 ± 2.1 | < 10 | < 10 | < 10 | > 100 | < 10 | < 10 | < 10 | < 10 | < 10 | < 10 | 10.7 | < 10 | < 10 | 17.1 | < 10 | inhibition at 10 µM [21]: 18.1%; inhibition at 10 µM [22]: 14%
